# Measured values: patent publication US8338143B2, “Enhanced production of paclitaxel and taxanes by cell cultures of Taxus species” (Phyton Holdings, LLC, priority 1996, dated 2012)
# Read-outs that look alike come from different tables or passages of the source.
# What was measured:
# [1] = system: Taxus chinensis cell culture SS122-42; test: Enhancement of taxane biosynthesis by jasmonic acid and its methyl ester; type: cell-based; conditions: 200 μM JMA or 89 μM MJS; Medium N + 10 μM NAA, 14 days, whole broth
# Description: Seven-day old cells of Taxus chinensis suspensions cultivated in Medium M (Table 2) were suction filtered aseptically using a sterile Buchner funnel fitted with a MIRACLOTH (Calbiochem) filter. Cells were inoculated into culture medium of the given composition indicated in Table 12, at a fresh weight cell density in the range of 15% to 20% (w/v). The cultures were incubated at 24±1° C. at 120 or 180 RPM (depending on the vessel size) on a gyratory shaker (1″ throw) in the dark. Evaporation was corrected for by adding sterile distilled water. Samples of whole broth (i.e., both extracellular and intracellular taxanes) were taken at periodic intervals, and were processed and analyzed by HPLC according to the methods outlined in Example 5.
# Taxus chinensis SS122-42 = test: Enhancement of taxane biosynthesis by MDNA; type: cell-based; conditions: 50 μM MDNA, 14 days, whole broth
# Description: Seven-day old cells of Taxus chinensis suspension culture SS122-42 cultivated in Medium M (Table 2) were suction filtered aseptically using a sterile Buchner funnel fitted with a […] (Calbiochem) filter. […] The vessels were incubated at 24±1° C. at 180 RPM on a gyratory shaker (1'' throw) in the dark. Treated cultures were sampled and analyzed using the methods described in Example 5 at various time points. Evaporation was corrected for by adding sterile distilled water at periodic intervals.
# [2] = system: Taxus chinensis cell culture SS122-13; test: Enhancement of taxane biosynthesis by jasmonic acid and its methyl ester; type: cell-based; conditions: 89 μM MJS; Medium N + 10 μM NAA, 14 days, whole broth
# Description: Seven-day old cells of Taxus chinensis suspensions cultivated in Medium M (Table 2) were suction filtered aseptically using a sterile Buchner funnel fitted with a […] (Calbiochem) filter. […] The cultures were incubated at 24±1° C. at 120 or 180 RPM (depending on the vessel size) on a gyratory shaker (1'' throw) in the dark. Evaporation was corrected for by adding sterile distilled water.
# [3] = system: Taxus chinensis cell line KS1A; test: Enhancement of taxane biosynthesis by silver compounds; type: cell-based
# Description: Analytical high performance liquid chromatography (HPLC) was performed on a high-carbon loaded diphenyl column (Supelco, 5 μM, 4.6 mm×25 cm) with an LDC Analytical binary gradient high pressure mixing system consisting of CM3500/CM3200 pumps, a CM4100 variable volume autosampler and an SM5000 photo diode array detector interfaced to a personal computer. Column temperature was regulated ay 35° C. with an Eldex CH150 column oven. Quantitative HPLC analysis of taxanes was accomplished using a binary gradient elution scheme as follows: […]
# Seven-day old cells of Taxus chinensis suspension KS1A cultivated in Medium L (Table 2) were suction filtered aseptically using a sterile Buchner funnel fitted with a MIRACLOTH (Calbiochem) filter. Approximately 0.75 to 1 gram fresh weight cells were inoculated into 4 to 5 mL of culture medium of the given composition indicated in Table 10, to yield a fresh weight cell density in the range of 15% to 20% (w/v). The vessels were incubated at 25±1° C. at 120 RPM on a gyratory shaker (1″ throw) in the dark. Evaporation was corrected for by addition of sterile distilled water. Samples of whole broth (i.e., both extracellular and intracellular taxanes) were taken at periodic intervals, and were processed and analyzed by HPLC according to the methods outlined in Example 5.
# Taxus spp. cell cultures [4] = test: Elicitation of Taxus cell cultures by biotic and abiotic elicitors; conditions: comparison among elicitors tested
# Taxus spp. cell cultures [5] = system: Taxus spp. cell cultures
# [6] = system: Taxus chinensis cell culture SS6A-1224
# [7] = system: Taxus chinensis cell culture SS122-13
# [8] = system: Taxus chinensis cell culture SS122-42
# [9] = culture medium I (Medium N + 10 μM NAA)
# [10] = culture medium II (medium I + 50 μM silver thiosulfate)
compound,measurement,setting,value
"CC/C=C\C[C@H]1C(=O)CC[C@@H]1CC(=O)O [JMA, Jasmonic acid]",Baccatin III,[1],4 mg/L
same,Other Taxanes,[1],87 mg/L
same,Taxol (paclitaxel),[1],120 mg/L
same,Total Taxanes,[1],211 mg/L
"O=C(O)C=Cc1cc2c(cc1[N+](=O)[O-])OCO2 [MDNA, 3,4-methylenedioxy-6-nitrocinnamic acid]",Baccatin III,Taxus chinensis SS122-42; [9],5 mg/L
same,Other Taxanes,Taxus chinensis SS122-42; [9],45 mg/L
same,Taxol (paclitaxel),Taxus chinensis SS122-42; [9],163 mg/L
same,Total Taxanes,Taxus chinensis SS122-42; [9],213 mg/L
same,Baccatin III,Taxus chinensis SS122-42; [10],34 mg/L
same,Other Taxanes,Taxus chinensis SS122-42; [10],89 mg/L
same,Taxol (paclitaxel),Taxus chinensis SS122-42; [10],311 mg/L
same,Total Taxanes,Taxus chinensis SS122-42; [10],434 mg/L
"CC/C=C\CC1C(=O)CCC1CC(=O)OC (centres unmarked) [MJS, methyl jasmonate]",Baccatin III,[1],3 mg/L
same,Other Taxanes,[1],109 mg/L
same,Taxol (paclitaxel),[1],121 mg/L
same,Total Taxanes,[1],233 mg/L
same,Baccatin III,[2],9 mg/L
same,Other Taxanes,[2],63 mg/L
same,Taxol (paclitaxel),[2],73 mg/L
same,Total Taxanes,[2],124 mg/L
O=C([O-])c1ccccc1.[Ag+] [Silver benzoate],Baccatin III,[3],40 mg/L extracellular product
same,Taxol (paclitaxel),[3],7 mg/L extracellular product
same,Total Taxanes,[3],47 mg/L extracellular product
O=S(=O)([O-])[O-].[Ag+].[Ag+] [Silver sulfate],Baccatin III,[3],61 mg/L extracellular product
same,Taxol (paclitaxel),[3],7 mg/L extracellular product
same,Total Taxanes,[3],68 mg/L extracellular product
O=C(O)c1ccccc1 [benzoic acid],production increase by elicitation (taxane accumulation and secretion),Taxus spp. cell cultures [4],highest production increase
COc1cc(/C=C/C(=O)O)ccc1O [ferulic acid],production increase by elicitation (taxane accumulation and secretion),Taxus spp. cell cultures [4],highest production increase
Chitosan,toxicity to cells / effect on cell viability,Taxus spp. cell cultures [5],toxic and causes permanent cell damage
Silver oxide,Baccatin III,[3],43 mg/L extracellular product
same,Taxol (paclitaxel),[3],18 mg/L extracellular product
same,Total Taxanes,[3],61 mg/L extracellular product
Silver thiosulfate,Baccatin III,[3],71 mg/L extracellular product
same,Taxol (paclitaxel),[3],15 mg/L extracellular product
same,Total Taxanes,[3],86 mg/L extracellular product
same,Baccatin III,[6],172 mg/L
same,Other Taxanes,[6],126 mg/L
same,Taxol (paclitaxel),[6],86 mg/L
same,Total Taxanes,[6],384 mg/L
same,Baccatin III,[7],12 mg/L
same,Other Taxanes,[7],60 mg/L
same,Taxol (paclitaxel),[7],103 mg/L
same,Total Taxanes,[7],173 mg/L
same,Baccatin III,[8],4 mg/L
same,Other Taxanes,[8],38 mg/L
same,Taxol (paclitaxel),[8],146 mg/L
same,Total Taxanes,[8],188 mg/L
Toluenesulfonic acid silver salt,Baccatin III,[3],39 mg/L extracellular product
same,Taxol (paclitaxel),[3],6 mg/L extracellular product
same,Total Taxanes,[3],45 mg/L extracellular product
